The values below come from paper PMC8545931, “Production and immobilization of β-glucanase from Aspergillus niger with its applications in bioethanol production and biocontrol of phytopathogenic fungi” (Scientific Reports, 2021).

The test has as its target T1, β-glucanase.
T1 construct: gene eglA; native secreted enzyme purified from culture supernatant (ammonium sulfate, DEAE-Cellulose, Sephadex G200); 56 kDa on SDS-PAGE; gene not identified; assayed as CMC hydrolysis
Briefly: residual CMC hydrolysis, DNS reducing sugar. The class given is biochemical, Aspergillus niger. The settings on record: free enzyme, standard assay 0.5% CMC stock, citrate pH 5.0, 40 °C.

In general, IC50 refers to the concentration that gives 50% inhibition. A high value points to weaker potency. For the setting “arginyl reagent, printed as 2,3-butanediol, probably 2,3-butanedione meant”, `CC(O)C(C)O` (stereo not shown) [2.3-butanediol] yielded an IC50 of 4.65 mM.

On to `CC(=O)n1ccnc1` [N-Acetyl imidazole], for which the IC50 (covalent, tyrosyl reagent) stood at 8.87 mM. Compound `O=C1CCC(=O)N1Br` [N-bromosuccinimide] returned an IC50 (covalent, tryptophanyl reagent) of 6.44 mM. In the case of `[Hg+][c]1ccccc1` [phenylmercuric acetate], the IC50 (covalent, sulfhydryl reagent) came to 5.47 mM.
